In patent US20170042193A1, “Pet Food Compositions Having Antimicrobial Activity” (priority 2010, published 2017):
Like-named read-outs stand apart in the source and are kept apart here.

What was measured:
Type in all cases: cell-based
[1] = tested on: Salmonella (S. aarhus, S. muenster E1 & S. worthington); conditions: for inhibition of Salmonella, clear zone around the kibbles: coated kibbles, overnight at 30° C.; for Zone of Inhibition-Diameter, Mean / Zone of Inhibition-Diameter, REP I Plate 1 / Zone of Inhibition-Diameter, REP I Plate 2 / Zone of Inhibition-Diameter, REP II Plate 1 / Zone of Inhibition-Diameter, REP II Plate 2 / Zone of Inhibition-Diameter, REP III Plate 1 / Zone of Inhibition-Diameter, REP III Plate 2: kibble coated
Procedure: The kibble diffusion test has similar principles as the disk diffusion method. […] […] Efficacy of the AMI was validated by measuring how closely the Salmonella cultures grew with respect to the saturated kibbles.
Commercial canine and feline adult pet food compositions in the form of kibbles were coated with potential AMIs. […] After incubation overnight at 30° C., plates were analyzed for presence of clear zones around the kibbles.

[2] = tested on: Salmonella (S. aarhus, S. muenster E1 and S. worthington); set-up: key to Salmonella growth or inhibition (MIC test): −: negative sign means inhibition; +: positive sign denotes growth
Procedure: The minimum inhibitory concentration (MIC) of an antimicrobial ingredient is defined as the maximum dilution of the product that will still inhibit the growth of Salmonella. Serial dilutions (0-3%, except for oregano 0-0.3%) were made of the AMI in bacterial growth media and poured in test tubes. The test organisms (S. aarhus, S. muenster E1 and S. worthington) were then added to the dilutions of the AMI ingredients to a final concentration of 10^6 or 10^3 cfu/g, incubated overnight at 30° C., and scored for growth by turbidity or plate counts.
Minimum Inhibitory Concentration was conducted for 10^3 and 10^6 cfu/g Salmonella. Results reported as negative sign means inhibition, while positive sign denotes growth.

Salmonella = test: Scale up challenge testing of canine kibble with Propionic Acid at simulated process steps
Excerpt: Canine adult pet food compositions with Propionic Acid were produced. Samples were taken to simulate different steps of the process. […] Moisture target was about 20%. 2) The dryer temperature was reduced and belt speed increased. […] Moisture target was about 15%. […] Moisture target was about 8%.
Kibble with intermediate moisture (15% and 20%) was cooled to prevent condensation in the bag and not encourage mold growth.
Extruder, dryer, uncoated base and finished product samples (10 kg each) were inoculated with Salmonella 10^6 cfu/g.
Uncoated base samples were coated with topicals (palatants and fat) after inoculation (Table 10).
Samples were split and incubated in a 30, 50 or 70° C. incubator.
Samples at 70° C. were plated after 0, 15, 30 and 60 minutes.
Samples at 50° C. were plated after 0, 30, 60 and 240 minutes.
Samples at 30° C. were plated after 0, 1, 2, 3, 8 and 15 days.

CCC(=O)O [Propionic Acid]
inhibition of Salmonella, clear zone around the kibbles [1]: inhibited Salmonella
Zone of Inhibition-Diameter, Mean ([1]; 0.65%): 9 mm
Zone of Inhibition-Diameter, REP I Plate 1 ([1]; 0.65%): 8 mm
Zone of Inhibition-Diameter, REP I Plate 2 ([1]; 0.65%): 10 mm
Zone of Inhibition-Diameter, REP II Plate 1 ([1]; 0.65%): 5 mm
Zone of Inhibition-Diameter, REP II Plate 2 ([1]; 0.65%): 10 mm
Zone of Inhibition-Diameter, REP III Plate 1 ([1]; 0.65%): 13 mm
Zone of Inhibition-Diameter, REP III Plate 2 ([1]; 0.65%): 5 mm
Zone of Inhibition-Diameter, Mean ([1]; 2%): 40 mm
Zone of Inhibition-Diameter, REP I Plate 1 ([1]; 2%): 47 mm
Zone of Inhibition-Diameter, REP I Plate 2 ([1]; 2%): 49 mm
Zone of Inhibition-Diameter, REP II Plate 1 ([1]; 2%): 47 mm
Zone of Inhibition-Diameter, REP II Plate 2 ([1]; 2%): 43 mm
Zone of Inhibition-Diameter, REP III Plate 1 ([1]; 2%): 30 mm
Zone of Inhibition-Diameter, REP III Plate 2 ([1]; 2%): 25 mm
Zone of Inhibition-Diameter, Mean ([1]; 3%): 31 mm
Zone of Inhibition-Diameter, REP I Plate 1 ([1]; 3%): 30 mm
Zone of Inhibition-Diameter, REP I Plate 2 ([1]; 3%): 28 mm
Zone of Inhibition-Diameter, REP II Plate 1 ([1]; 3%): 31 mm
Zone of Inhibition-Diameter, REP II Plate 2 ([1]; 3%): 34 mm
Zone of Inhibition-Diameter, REP III Plate 1 ([1]; 3%): 33 mm
Zone of Inhibition-Diameter, REP III Plate 2 ([1]; 3%): 30 mm
Zone of Inhibition-Diameter, Mean ([1]; 3% (in CWG)): 31 mm
Zone of Inhibition-Diameter, REP I Plate 1 ([1]; 3% (in CWG)): 34 mm
Zone of Inhibition-Diameter, REP I Plate 2 ([1]; 3% (in CWG)): 34 mm
Zone of Inhibition-Diameter, REP II Plate 1 ([1]; 3% (in CWG)): 28 mm
Zone of Inhibition-Diameter, REP II Plate 2 ([1]; 3% (in CWG)): 31 mm
Zone of Inhibition-Diameter, REP III Plate 1 ([1]; 3% (in CWG)): 28 mm
Zone of Inhibition-Diameter, REP III Plate 2 ([1]; 3% (in CWG)): 31 mm
Zone of Inhibition-Diameter, Mean ([1]; […]): 21 mm
Zone of Inhibition-Diameter, REP I Plate 1 ([1]; […]): 25 mm
Zone of Inhibition-Diameter, REP I Plate 2 ([1]; […]): 18 mm
Zone of Inhibition-Diameter, REP II Plate 1 ([1]; […]): 25 mm
Zone of Inhibition-Diameter, REP II Plate 2 ([1]; […]): 25 mm
Zone of Inhibition-Diameter, REP III Plate 1 ([1]; […]): 13 mm
Zone of Inhibition-Diameter, REP III Plate 2 ([1]; […]): 20 mm
Salmonella growth or inhibition (MIC test) ([2]; 10^3 cfu/g Salmonella, antimicrobial level 0.03%): +
Salmonella growth or inhibition (MIC test) ([2]; 10^3 cfu/g Salmonella, antimicrobial level 0.15%): +
Salmonella growth or inhibition (MIC test) ([2]; 10^3 cfu/g Salmonella, antimicrobial level 0.3%): +
Salmonella growth or inhibition (MIC test) ([2]; 10^3 cfu/g Salmonella, antimicrobial level 0.9%): −
Salmonella growth or inhibition (MIC test) ([2]; 10^3 cfu/g Salmonella, antimicrobial level 1.5%): −
Salmonella growth or inhibition (MIC test) ([2]; 10^3 cfu/g Salmonella, antimicrobial level 2.1%): −
Salmonella growth or inhibition (MIC test) ([2]; 10^3 cfu/g Salmonella, antimicrobial level 3%): −
Salmonella growth or inhibition (MIC test) ([2]; 10^3 cfu/g Salmonella, antimicrobial level […]): −
Salmonella growth or inhibition (MIC test) ([2]; 10^6 cfu/g Salmonella, antimicrobial level 0.03%): +
Salmonella growth or inhibition (MIC test) ([2]; 10^6 cfu/g Salmonella, antimicrobial level 0.15%): +
Salmonella growth or inhibition (MIC test) ([2]; 10^6 cfu/g Salmonella, antimicrobial level 0.3%): −
Salmonella growth or inhibition (MIC test) ([2]; 10^6 cfu/g Salmonella, antimicrobial level 0.9%): −
Salmonella growth or inhibition (MIC test) ([2]; 10^6 cfu/g Salmonella, antimicrobial level 1.5%): −
Salmonella growth or inhibition (MIC test) ([2]; 10^6 cfu/g Salmonella, antimicrobial level 2.1%): −
Salmonella growth or inhibition (MIC test) ([2]; 10^6 cfu/g Salmonella, antimicrobial level 3%): −
Salmonella growth or inhibition (MIC test) ([2]; 10^6 cfu/g Salmonella, antimicrobial level […]): −
reduction of Salmonella compared with untreated control (Salmonella; 1, 2 and 3% topically applied): reduced Salmonella by two log cycles more than an untreated control
reduction of Salmonella compared with untreated control (Salmonella; 2 and 3% topical/preconditioner): reduced Salmonella by two log cycles more than an untreated control
reduction of Salmonella compared with untreated control (Salmonella; 3% in preconditioner): reduced Salmonella by two log cycles more than an untreated control
efficacy against Salmonella at points of processing (Salmonella; concentrations of 1%, 2%, and 3%): efficacious against Salmonella at all points of processing
effect on Salmonella (Salmonella; finished product contaminated after enrober, 2% and 3% added topical/preconditioner): positive effect
effect on Salmonella (Salmonella; finished product contaminated after enrober, topical application of 1%, 2% and 3%): positive effect
effect on Salmonella (Salmonella; product coated and inoculated (finished product contaminated after enrober), 3% in the preconditioner): some immediate effect
reduction of Salmonella compared with control (Salmonella; product simulating entry to the airlift, evaporative cooling, dryer after surface cooling, 1%, 2%, and 3%): Reduction of two logs more than control

CCC(=O)[O-].CCC(=O)[O-].[Ca+2] [Ca propionate liquid, Ca propionate]
inhibition of Salmonella, clear zone around the kibbles [1]: inhibited Salmonella
Zone of Inhibition-Diameter, Mean ([1]; 1% solution): 9 mm
Zone of Inhibition-Diameter, REP I Plate 1 ([1]; 1% solution): 5 mm
Zone of Inhibition-Diameter, REP I Plate 2 ([1]; 1% solution): 16 mm
Zone of Inhibition-Diameter, REP II Plate 1 ([1]; 1% solution): 4 mm
Zone of Inhibition-Diameter, REP II Plate 2 ([1]; 1% solution): 9 mm
Zone of Inhibition-Diameter, REP III Plate 1 ([1]; 1% solution): 9 mm
Zone of Inhibition-Diameter, REP III Plate 2 ([1]; 1% solution): 9 mm
Zone of Inhibition-Diameter, Mean ([1]; 2% solution): 17 mm
Zone of Inhibition-Diameter, REP I Plate 1 ([1]; 2% solution): 19 mm
Zone of Inhibition-Diameter, REP I Plate 2 ([1]; 2% solution): 14 mm
Zone of Inhibition-Diameter, REP II Plate 1 ([1]; 2% solution): 18 mm
Zone of Inhibition-Diameter, REP II Plate 2 ([1]; 2% solution): 19 mm
Zone of Inhibition-Diameter, REP III Plate 1 ([1]; 2% solution): 16 mm
Zone of Inhibition-Diameter, REP III Plate 2 ([1]; 2% solution): 14 mm
Zone of Inhibition-Diameter, Mean ([1]; 3% solution): 21 mm
Zone of Inhibition-Diameter, REP I Plate 1 ([1]; 3% solution): 20 mm
Zone of Inhibition-Diameter, REP I Plate 2 ([1]; 3% solution): 15 mm
Zone of Inhibition-Diameter, REP II Plate 1 ([1]; 3% solution): 19 mm
Zone of Inhibition-Diameter, REP II Plate 2 ([1]; 3% solution): 25 mm
Zone of Inhibition-Diameter, REP III Plate 1 ([1]; 3% solution): 24 mm
Zone of Inhibition-Diameter, REP III Plate 2 ([1]; 3% solution): 25 mm
